Reference: PubChem BioAssay (NCI)
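Protocol summary: plate cells (96-well), add compound at 5 concentrations, incubate 48 h, interpolate endpoints linearly. At the TGI there is no net growth.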

Assays:
Assay in all cases: NCI-60 cell line screen, 48 h
786-0 renal = system: 786-0 renal
A498 renal = system: A498 renal
A549 NSCLC = system: A549 NSCLC
ACHN renal = system: ACHN renal
BT-549 breast = system: BT-549 breast
CAKI-1 renal = system: CAKI-1 renal
CCRF-CEM leukemia = system: CCRF-CEM leukemia
COLO 205 colon = system: COLO 205 colon
DU-145 prostate = system: DU-145 prostate
EKVX NSCLC = system: EKVX NSCLC
HCC-2998 colon = system: HCC-2998 colon
HCT-116 colon = system: HCT-116 colon
HCT-15 colon = system: HCT-15 colon
HL-60(TB) leukemia = system: HL-60(TB) leukemia
HOP-62 NSCLC = system: HOP-62 NSCLC
HOP-92 NSCLC = system: HOP-92 NSCLC
HS 578T breast = system: HS 578T breast
HT29 colon = system: HT29 colon
IGROV1 ovarian = system: IGROV1 ovarian
K-562 leukemia = system: K-562 leukemia
KM12 colon = system: KM12 colon
LOX IMVI melanoma = system: LOX IMVI melanoma
M14 melanoma = system: M14 melanoma
MALME-3M melanoma = system: MALME-3M melanoma
MCF7 breast = system: MCF7 breast
MDA-MB-231 breast = system: MDA-MB-231 breast
MDA-MB-435 = system: MDA-MB-435
MDA-N = system: MDA-N
MOLT-4 leukemia = system: MOLT-4 leukemia
NCI-H226 lung = system: NCI-H226 lung
NCI-H23 lung = system: NCI-H23 lung
NCI-H460 lung = system: NCI-H460 lung
NCI-H522 lung = system: NCI-H522 lung
NCI/ADR-RES ovarian = system: NCI/ADR-RES ovarian
OVCAR-3 ovarian = system: OVCAR-3 ovarian
OVCAR-4 ovarian = system: OVCAR-4 ovarian
OVCAR-5 ovarian = system: OVCAR-5 ovarian
OVCAR-8 ovarian = system: OVCAR-8 ovarian
PC-3 prostate = system: PC-3 prostate
RPMI-8226 leukemia = system: RPMI-8226 leukemia
RXF 393 renal = system: RXF 393 renal
SF-268 CNS = system: SF-268 CNS
SF-295 CNS = system: SF-295 CNS
SF-539 CNS = system: SF-539 CNS
SK-MEL-2 melanoma = system: SK-MEL-2 melanoma
SK-MEL-28 melanoma = system: SK-MEL-28 melanoma
SK-MEL-5 melanoma = system: SK-MEL-5 melanoma
SK-OV-3 ovarian = system: SK-OV-3 ovarian
SN12C renal = system: SN12C renal
SNB-19 CNS = system: SNB-19 CNS
SNB-75 CNS = system: SNB-75 CNS
SR leukemia = system: SR leukemia
SW-620 colon = system: SW-620 colon
T-47D breast = system: T-47D breast
TK-10 renal = system: TK-10 renal
U251 CNS = system: U251 CNS
UACC-257 melanoma = system: UACC-257 melanoma
UACC-62 melanoma = system: UACC-62 melanoma
UO-31 renal = system: UO-31 renal

SMILES: O=C1c2ccccc2C(=O)N1[C@@H](Cc1ccccc1)C(=O)n1cccc1CO
- TGI (786-0 renal): > 100 µM
- TGI (A498 renal): > 100 µM
- TGI (A549 NSCLC): > 100 µM
- TGI (ACHN renal): > 100 µM
- TGI (BT-549 breast): > 100 µM
- TGI (CAKI-1 renal): > 100 µM
- TGI (CCRF-CEM leukemia): > 100 µM
- TGI (COLO 205 colon): > 100 µM
- TGI (DU-145 prostate): > 100 µM
- TGI (EKVX NSCLC): > 100 µM
- TGI (HCC-2998 colon): > 100 µM
- TGI (HCT-116 colon): > 100 µM
- TGI (HCT-15 colon): > 100 µM
- TGI (HL-60(TB) leukemia): > 100 µM
- TGI (HOP-62 NSCLC): > 100 µM
- TGI (HOP-92 NSCLC): > 100 µM
- TGI (HS 578T breast): > 100 µM
- TGI (HT29 colon): > 100 µM
- TGI (IGROV1 ovarian): > 100 µM
- TGI (K-562 leukemia): > 100 µM
- TGI (KM12 colon): > 100 µM
- TGI (LOX IMVI melanoma): > 100 µM
- TGI (M14 melanoma): > 100 µM
- TGI (MALME-3M melanoma): > 100 µM
- TGI (MCF7 breast): > 100 µM
- TGI (MDA-MB-231 breast): > 100 µM
- TGI (MDA-MB-435): > 100 µM
- TGI (MDA-N): > 100 µM
- TGI (MOLT-4 leukemia): > 100 µM
- TGI (NCI-H226 lung): > 100 µM
- TGI (NCI-H23 lung): > 100 µM
- TGI (NCI-H460 lung): > 100 µM
- TGI (NCI-H522 lung): > 100 µM
- TGI (NCI/ADR-RES ovarian): > 100 µM
- TGI (OVCAR-3 ovarian): > 100 µM
- TGI (OVCAR-4 ovarian): > 100 µM
- TGI (OVCAR-5 ovarian): > 100 µM
- TGI (OVCAR-8 ovarian): > 100 µM
- TGI (PC-3 prostate): > 100 µM
- TGI (RPMI-8226 leukemia): > 100 µM
- TGI (RXF 393 renal): 56.6 µM
- TGI (SF-268 CNS): > 100 µM
- TGI (SF-295 CNS): > 100 µM
- TGI (SF-539 CNS): > 100 µM
- TGI (SK-MEL-2 melanoma): > 100 µM
- TGI (SK-MEL-28 melanoma): > 100 µM
- TGI (SK-MEL-5 melanoma): > 100 µM
- TGI (SK-OV-3 ovarian): > 100 µM
- TGI (SN12C renal): > 100 µM
- TGI (SNB-19 CNS): > 100 µM
- TGI (SNB-75 CNS): > 100 µM
- TGI (SR leukemia): > 100 µM
- TGI (SW-620 colon): > 100 µM
- TGI (T-47D breast): > 100 µM
- TGI (TK-10 renal): > 100 µM
- TGI (U251 CNS): > 100 µM
- TGI (UACC-257 melanoma): > 100 µM
- TGI (UACC-62 melanoma): > 100 µM
- TGI (UO-31 renal): > 100 µM
